Entries after “also recorded” stand apart in the source; their conditions may differ.
Experiments:
Format in all cases: cell-based
HIV-1 = assay: HeLa CD4 LTR β-gal HIV-1 attachment assay (Experimental Example 1); conditions: for IC50: Human immunodeficiency virus 1, HeLa; for inhibition of HIV attachment/entry: following a 24 h pre-incubation
HIV-1 (96USHIPS7 strain) = assay: HIV attachment assay in PBMCs (cell-associated p24)
Method: ELISA kits were purchased from Coulter Electronics. The assay was performed according to the manufacturer's instructions. Control curves were generated in each assay to accurately quantitate the amount of p24 antigen in each sample. For experiments using cell lysates. Fifty thousand (5×10^4) viable cells were lysed in Coulter ELISA buffer and subjected to 1 round of freeze/thawed to liberate trapped p24 and p24 detected per manufacturers instructions. HIV capsid protein (p24) was quantitated spectrophotometrically at 450 nm using a Molecular Devices Vmax plate reader using a standard curve. Final concentrations were calculated from the optical density values using the Molecular Devices Soft Max software package.
The attachment assay with PBMCs was performed as follows. Briefly, 1×10^6 PHA/IL-2 PBMCs were incubated for 0, 2, 4 and 24 hours with IMG compounds and cannabidiol in polypropylene tubes. A pre-titered amount of HIV-1 (96USHIPS7 strain, obtained from the AIDS Research and Reference Reagent Program ) was added in the presence of compound and incubated for 3 h at 37° C. After incubation the cultures were washed 3 times (400×g, 10 min, 4° C.) with media (1:25,000 dilution of input p24), the cell pellets lysed with p24 lysing buffer (Coulter) and p24 content determined by ELISA.
PBMCs pretreated with compounds for 0, 2, 4, and 24 were incubated with cell-free HIV-1 for 3 h and the excess unbound HIV removed. The assessed the amount of HIV bound to the cell was then assessed by measuring cell-associated p24 content of total cell lysates.

IIIB strain of HIV-1 = assay: Virus attachment assay, HeLa CD4 LTR β-gal cells (Experimental Example 2); conditions: Human immunodeficiency virus 1, IIIB, HeLa, read-out: Attachment Assay IC50
Method: This assay detects compounds that block virus attachment using HeLa CD4 LTR β-gal cells. HeLa CD4 LTR β-gal cells were cultured with selection antibiotics. Twenty-four h prior to initiation of the assay, the cells were trypsinized, counted and plated in a 0.2 cm well in media without selection antibiotics. At 24 h media is removed and compound in media placed on the cells and incubated for 15 min at 37° C. A known titer of the IIIB strain of HIV-1 was then added to the wells and the incubation continued for 1 to 2 h. At the end of the incubation the wells were washed 2 times with media and the culture continued for 40 to 48 h. At termination of the assay, media is removed and β-galactosidase enzyme expression determined by chemiluminescence per manufacturer's instructions (Tropix Gal-screen, Bedford Mass.). Compound toxicity is monitored on a sister plate by XTT or MTS dye reduction. All determinations are performed in triplicate with serial_Log10 dilution of the test materials.

[1] = tested on: cell-to-cell fusion mediated by HIV-1 Env and CD4; assay: Fusion assay, HeLa CD4 LTR β-gal and HL2/3 cells (Experimental Example 2); conditions: Human immunodeficiency virus 1, HL2/3, read-out: Fusion Assay IC50
Method: (§1) The fusion assay assesses the ability of compounds to block cell-to-cell fusion mediated by HIV-1 Env and CD4 expressed on separate cells. This assay is sensitive to inhibitors of both the gp 120/CD4 interaction and inhibitors of the X4 coreceptor. HeLa CD4 LTR β-gal cells were plated in microtiter wells and diluted compounds are added and allowed to incubate at 37° C. for 1 hr prior to the addition of HL2/3 cells. The incubation was then continued for 40 to 48 h, after which fusion is monitored by measurement of β-galactosidase enzyme expression, detectable by chemiluminescence (Tropix Gal-screen, Tropix, Bedford, Mass.). Compound toxicity is monitored on a sister plate using XTT or MTS dye reduction. All determinations are performed in triplicate with serial_Log10 dilution of the test materials.

[2] = Compound toxicity in the fusion assay, sister plate, XTT or MTS (Example 2); conditions: human, HeLa CD4 LTR β-gal cells, read-out: Fusion Assay TC50
Method: as §1

## CC(C)=CCCC1(C)CCc2c(O)cc(C(C)(C)CCCC(C)C)cc2O1 (centres unmarked) [IMG508, 3,4-Dihydro-2-methyl-2-(4-methyl-3-pentenyl)-7-(1,1,5-trimethylhexyl)-2H-1-benzopyran-5-ol]
HIV-1; Experiment 1, pretreat 0 h
  IC50: 16 µM
HIV-1; Experiment 1, pretreat 4 h
  IC50: 10.8 µM
HIV-1; Experiment 1, pretreat 24 h
  IC50: 7.4 µM
HIV-1; Experiment 2, pretreat 0 h
  IC50: 0.9 µM
HIV-1; Experiment 2, pretreat 4 h
  IC50: 11 µM
HIV-1; Experiment 2, pretreat 24 h
  IC50: 2.6 µM
HIV-1; at all times
  β-galactosidase production relative to background (cells alone+compounds): suppressed β-galactosidase production below background
HIV-1
  inhibition of HIV attachment/entry: consistent inhibition
HIV-1; pretreat 0 h
  Comment: suppression of β-galactosidase activity: Suppression of β-galactosidase activity,
  Comment: transient suppression lost at lower concentrations: Transient suppression lost with at lower
HIV-1; pretreat 4 h
  Comment: suppression of β-galactosidase activity: Suppression of β-galactosidase activity
HIV-1; pretreat 24 h
  Comment: suppression of β-galactosidase activity: Suppression of β-galactosidase activity,
  Comment: transient suppression lost at lower concentrations: Transient suppression lost with at lower
HIV-1 (96USHIPS7 strain); 15 μM, pretreatment 0, 2, 4, 24 h
  Comments: effect on HIV attachment: No significant effect
HIV-1 (96USHIPS7 strain); 15 μM, time 0 h
  % Control: 81.3%
  pg p24: 312 pg
HIV-1 (96USHIPS7 strain); 15 μM, time 2 h
  % Control: 85.4%
  pg p24: 328 pg
HIV-1 (96USHIPS7 strain); 15 μM, time 4 h
  % Control: 72.7%
  pg p24: 279 pg
HIV-1 (96USHIPS7 strain); 15 μM, time 24 h
  % Control: 111.5%
  pg p24: 428 pg
HIV-1 (96USHIPS7 strain); pretreated for 24 h
  virus binding relative to control: return to control levels of virus binding

## Cc1c(O)cc(C(C)(C)CCCC(C)C)cc1O [IMG510, 2-Methyl-5-(1,1,5-trimethylhexyl)resorcinol]
HIV-1; Experiment 1, pretreat 0 h
  IC50: > 50 µM
HIV-1; Experiment 1, pretreat 4 h
  IC50: > 50 µM
HIV-1; Experiment 1, pretreat 24 h
  IC50: 0.14 µM
HIV-1; Experiment 2, pretreat 0 h
  IC50: > 50 µM
HIV-1; Experiment 2, pretreat 4 h
  IC50: > 50 µM
HIV-1; Experiment 2, pretreat 24 h
  IC50: 11.5 µM
HIV-1; following 24 h exposure
  β-galactosidase production relative to background (cells alone+compounds): suppressed β-galactosidase production below background
HIV-1
  inhibition of HIV attachment/entry: consistent inhibition
HIV-1; pretreat 4 h
  Comment: transient suppression lost at lower concentrations: transient suppression of virus replication; also recorded: Transient suppression lost with at lower
HIV-1; pretreat 24 h
  Comment: suppression of β-galactosidase activity: Suppression of β-galactosidase activity
HIV-1 (96USHIPS7 strain); 15 μM, time 0 h
  % Control: 91.1%
  pg p24: 350 pg
HIV-1 (96USHIPS7 strain); 15 μM, time 2 h
  % Control: 85.7%
  pg p24: 329 pg
HIV-1 (96USHIPS7 strain); 15 μM, time 4 h
  % Control: 71.4%
  pg p24: 274 pg
HIV-1 (96USHIPS7 strain); 15 μM, time 24 h
  % Control: 88.3%
  pg p24: 339 pg
IIIB strain of HIV-1
  IC50: 50.8 µM
[1]
  IC50: 1.36 µM
[2]
  CC50: > 100 µM

Source: US20030232101A1, “Topical formulations of resorcinols and cannibinoids and methods of use” (Immugen Pharmaceuticals, Inc., priority 2002, published 2003)
